Measurements: patent US8609669B2, “Potassium channel modulators” (AbbVie Inc., priority 2010, dated 2013)

Molecular target: T1, KCNQ 2/3 channels (HEK293 cells stably expressing human KCNQ2 and KCNQ3 subunits) (Homo sapiens, UniProt O43525+O43526)
T1 construct: expressed in transfected cells; host or cells: HEK293
Test: KCNQ2/3 channel activation, thallium flux FLIPR assay (BTC-AM dye)
Type: cell-based
Conditions: for Emax: HEK293, maximum response relative to response of retigabine at 10 μM (set at 100%), read-out: Max. %; for EC50: HEK293 cells expressing human KCNQ2 and KCNQ3, FLIPR thallium flux
Method in brief: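 HEK293 cells stably expressing human KCNQ2/KCNQ3 were loaded with BTC-AM and exposed to compound for 4 min in pH 7.3 gluconate buffer with ouabain. Thallium flux was triggered with 6 mM TlNO3 and 10 mM K2SO4 (stock additions) and fluorescence (ex 488, em 540 nm) recorded for 3 min. EC50 came from responses over baseline; maximal response is relative to 10 μM retigabine (100%).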

| Compound | Emax [%] | EC50 [µM] |
| --- | --- | --- |
| COc1cc(CC(=O)Nc2nn3cccnc3c2-c2cccc(F)c2)cc(OC)c1 [Example 138, 2-(3,5-dimethoxyphenyl)-N-[3-(3-fluorophenyl)pyrazolo[1,5-a]pyrimidin-2-yl]acetamide] | 11 | > 10 |
| O=C(CCC1CCCC1)Nc1nn2cccnc2c1-c1cccnc1 [Example 119, 3-cyclopentyl-N-[3-(pyridin-3-yl)pyrazolo[1,5-a]pyrimidin-2-yl]propanamide] | 52 | 1 to 10 |
| Cc1cc(C)n2nc(NC(=O)CC3CCCCC3)c(-c3ccc(F)c(C)c3)c2n1 [Example 34, 2-cyclohexyl-N-[3-(4-fluoro-3-methylphenyl)-5,7-dimethylpyrazolo[1,5-a]pyrimidin-2-yl]acetamide] | 166 | < 0.1 |
| Cc1cc(C)n2nc(NC(=O)CCC3CCCCC3)c(CC(C)(C)C)c2n1 [Example 14, 3-cyclohexyl-N-[3-(2,2-dimethylpropyl)-5,7-dimethylpyrazolo[1,5-a]pyrimidin-2-yl]propanamide] | 182 | < 0.1 |
| CC1(C)[C@H]2CC[C@@H](CC(=O)Nc3nn4cccnc4c3-c3ccc(OC(F)(F)F)cc3)[C@@H]1C2 [Example 4, 2-[(1S,2S,5S)-6,6-dimethylbicyclo[3.1.1]hept-2-yl]-N-{3-[4-(trifluoromethoxy)phenyl]pyrazolo[1,5-a]pyrimidin-2-yl}acetamide] | 73 | 0.5 to 1 |
| O=C(CCC1CCCC1)Nc1nn2cccnc2c1-c1cccc(F)c1 [Example 135, 3-cyclopentyl-N-[3-(3-fluorophenyl)pyrazolo[1,5-a]pyrimidin-2-yl]propanamide] | 143 | 0.1 to 0.5 |
| O=C(Cc1ccc(F)cc1)Nc1nn2cccnc2c1-c1ccc(OC(F)(F)F)cc1 [Example 140, 2-(4-fluorophenyl)-N-{3-[4-(trifluoromethoxy)phenyl]pyrazolo[1,5-a]pyrimidin-2-yl}acetamide] | 66 | > 10 |
| Cc1cnc2c(C(C)(C)C)c(NC(=O)CCC3CCCCC3)nn2c1 [Example 178, N-(3-tert-butyl-6-methylpyrazolo[1,5-a]pyrimidin-2-yl)-3-cyclohexylpropanamide] | 158 | < 0.1 |
| O=C(CCC1CCCC1)Nc1nn2cccnc2c1/C=C/c1ccc(C(F)(F)F)cc1 [Example 153, 3-cyclopentyl-N-(3-{(E)-2-[4-(trifluoromethyl)phenyl]vinyl}pyrazolo[1,5-a]pyrimidin-2-yl)propanamide] | 50 | > 10 |
| O=C(Cc1ccncc1)Nc1nn2cccnc2c1-c1ccc(Cl)cc1 [Example 102, N-[3-(4-chlorophenyl)pyrazolo[1,5-a]pyrimidin-2-yl]-2-(pyridin-4-yl)acetamide] | 23 | > 10 |
| Cc1cnc2c(-c3ccccc3)c(NC(=O)CC(C)(C)C)nn2c1 [Example 92, 3,3-dimethyl-N-(6-methyl-3-phenylpyrazolo[1,5-a]pyrimidin-2-yl)butanamide] | 164 | 1 to 10 |
| CC(C)(C)/C=C/c1c(NC(=O)Cc2ccc(F)cc2)nn2cccnc12 [Example 161, N-{3-[(1E)-3,3-dimethylbut-1-en-1-yl]pyrazolo[1,5-a]pyrimidin-2-yl}-2-(4-fluorophenyl)acetamide] | 107 | 0.1 to 0.5 |
| Cc1cnc2c(-c3ccc(F)c(C)c3)c(NC(=O)C[S+]([O-])C3CCCC3)nn2c1 (stereo not shown) [Example 173, 2-(cyclopentylsulfinyl)-N-[3-(4-fluoro-3-methylphenyl)-6-methylpyrazolo[1,5-a]pyrimidin-2-yl]acetamide] | 21 | > 10 |
| Cc1cnc2c(-c3ccc(F)c(C)c3)c(NC(=O)CSC3CCCC3)nn2c1 [Example 143, 2-(cyclopentylthio)-N-[3-(4-fluoro-3-methylphenyl)-6-methylpyrazolo[1,5-a]pyrimidin-2-yl]acetamide] | 162 | 0.1 to 0.5 |
| Cc1ccnc2c(-c3ccc(Cl)cc3)c(NC(=O)CC(C)(C)C)nn12 [Example 40, N-[3-(4-chlorophenyl)-7-methylpyrazolo[1,5-a]pyrimidin-2-yl]-3,3-dimethylbutanamide] | 139 | 1 to 10 |
| Cc1ccc(/C=C/c2c(NC(=O)CC(C)(C)C)nn3cccnc23)cn1 [Example 115, 3,3-dimethyl-N-{3-[(E)-2-(6-methylpyridin-3-yl)vinyl]pyrazolo[1,5-a]pyrimidin-2-yl}butanamide] | 10 | > 10 |
| Cc1cnc2c(-c3cccc(OC(F)(F)F)c3)c(NC(=O)CC(C)(C)C)nn2c1 [Example 3, 3,3-dimethyl-N-{6-methyl-3-[3-(trifluoromethoxy)phenyl]pyrazolo[1,5-a]pyrimidin-2-yl}butanamide] | 141 | 0.1 to 0.5 |
| Cc1cnc2c(Cc3ccc(F)cc3)c(NC(=O)CC3CCCC3)nn2c1 [Example 5, 2-cyclopentyl-N-(3-(4-fluorobenzyl)-6-methylpyrazolo[1,5-a]pyrimidin-2-yl)acetamide] | 143 | < 0.1 |

| Compound | Emax [%] | EC50 [µM] |
| --- | --- | --- |
| Cc1cnc2c(-c3ccc(F)c(C)c3)c(NC(=O)CC34CC5CC(CC(C5)C3)C4)nn2c1 [Example 151, 2-(adamantan-1-yl)-N-[3-(4-fluoro-3-methylphenyl)-6-methylpyrazolo[1,5-a]pyrimidin-2-yl]acetamide] | 179 | < 0.1 |
| Cc1cc(C)n2nc(NC(=O)CCC3CCCC3)c(C(C)C)c2n1 [Example 122, 3-cyclopentyl-N-(3-isopropyl-5,7-dimethylpyrazolo[1,5-a]pyrimidin-2-yl)propanamide] | 155 | < 0.1 |
| COc1ccc(CC(=O)Nc2nn3cc(C)cnc3c2-c2cccc(Cl)c2)cc1 [Example 50, N-[3-(3-chlorophenyl)-6-methylpyrazolo[1,5-a]pyrimidin-2-yl]-2-(4-methoxyphenyl)acetamide] | 100 | 1 to 10 |
| COc1cccc(CC(=O)Nc2nn3c(C)ccnc3c2-c2ccc(Cl)cc2)c1 [Example 41, N-[3-(4-chlorophenyl)-7-methylpyrazolo[1,5-a]pyrimidin-2-yl]-2-(3-methoxyphenyl)acetamide] | 136 | 1 to 10 |
| Cc1ccnc2c(-c3ccc(C(F)(F)F)cc3)c(NC(=O)CCC3CCCCC3)nn12 [Example 79, 3-cyclohexyl-N-{7-methyl-3-[4-(trifluoromethyl)phenyl]pyrazolo[1,5-a]pyrimidin-2-yl}propanamide] | 122 | 0.1 to 0.5 |
| Cc1cc(C)n2nc(NC(=O)CC3CCCCC3)c(-c3ccc(Cl)cc3)c2n1 [Example 42, N-[3-(4-chlorophenyl)-5,7-dimethylpyrazolo[1,5-a]pyrimidin-2-yl]-2-cyclohexylacetamide] | 142 | 0.1 to 0.5 |
| O=C(Cc1ccc(F)cc1)Nc1nn2cccnc2c1-c1cccc(F)c1 [Example 82, 2-(4-fluorophenyl)-N-[3-(3-fluorophenyl)pyrazolo[1,5-a]pyrimidin-2-yl]acetamide] | 112 | 0.5 to 1 |
| Cc1ccn2nc(NC(=O)Cc3ccc(F)cc3)c(-c3ccc(OC(F)(F)F)cc3)c2n1 [Example 168, 2-(4-fluorophenyl)-N-{5-methyl-3-[4-(trifluoromethoxy)phenyl]pyrazolo[1,5-a]pyrimidin-2-yl}acetamide] | 78 | 0.1 to 0.5 |
| Cc1ccccc1-c1c(NC(=O)CC(C)(C)C)nn2cccnc12 [Example 141, 3,3-dimethyl-N-[3-(2-methylphenyl)pyrazolo[1,5-a]pyrimidin-2-yl]butanamide] | 6 | > 10 |
| O=C(CC1CC2CCC1C2)Nc1nn2cccnc2c1-c1ccc(OC(F)(F)F)cc1 (racemic) [Example 124, (±)-exo-2-bicyclo[2.2.1]hept-2-yl-N-{3-[4-(trifluoromethoxy)phenyl]pyrazolo[1,5-a]pyrimidin-2-yl}acetamide] | 130 | 0.1 to 0.5 |
| Cc1cc(C)n2nc(NC(=O)CCc3ccccc3)c(CC(C)(C)C)c2n1 [Example 15, N-[3-(2,2-dimethylpropyl)-5,7-dimethylpyrazolo[1,5-a]pyrimidin-2-yl]-3-phenylpropanamide] | 191 | 0.1 to 0.5 |
| Cc1cc(C)n2nc(NC(=O)COC3CCCC3)c(-c3ccc(Cl)c(C)c3)c2n1 [Example 134, N-[3-(4-chloro-3-methylphenyl)-5,7-dimethylpyrazolo[1,5-a]pyrimidin-2-yl]-2-(cyclopentyloxy)acetamide] | 11 | > 10 |
| Cc1cnc2c(-c3ccccc3)c(NC(=O)Cc3ccc(Cl)cc3)nn2c1 [Example 93, 2-(4-chlorophenyl)-N-(6-methyl-3-phenylpyrazolo[1,5-a]pyrimidin-2-yl)acetamide] | 131 | 0.1 to 0.5 |
| CC(C)(C)c1c(NC(=O)Cc2ccc(Cl)cc2)nn2cccnc12 [Example 152, N-(3-tert-butylpyrazolo[1,5-a]pyrimidin-2-yl)-2-(4-chlorophenyl)acetamide] | 191 | 0.1 to 0.5 |
| COc1ccc(CC(=O)Nc2nn3c(C)ccnc3c2-c2ccc(C(F)(F)F)cc2)cc1 [Example 80, 2-(4-methoxyphenyl)-N-{7-methyl-3-[4-(trifluoromethyl)phenyl]pyrazolo[1,5-a]pyrimidin-2-yl}acetamide] | 59 | > 10 |
| O=C(CCC1CCCC1)Nc1nn2cccnc2c1-c1cccc(Cl)c1 [Example 56, N-[3-(3-chlorophenyl)pyrazolo[1,5-a]pyrimidin-2-yl]-3-cyclopentylpropanamide] | 98 | 0.1 to 0.5 |
| CC(C)(C)CCC(=O)Nc1nn2cccnc2c1C(C)(C)C [Example 170, N-(3-tert-butylpyrazolo[1,5-a]pyrimidin-2-yl)-4,4-dimethylpentanamide] | 124 | 1 to 10 |
